{"source": "paper PMC10228259", "about": "(Nature, 2023)", "key": {"[1]": {"molecular_target": "T1, chemotactile receptor for terpenes 1 (CRT1, previously CR518) (Octopus bimaculoides, UniProt A0A0L8FVQ9)", "T1 sequence (A0A0L8FVQ9 21-399)": "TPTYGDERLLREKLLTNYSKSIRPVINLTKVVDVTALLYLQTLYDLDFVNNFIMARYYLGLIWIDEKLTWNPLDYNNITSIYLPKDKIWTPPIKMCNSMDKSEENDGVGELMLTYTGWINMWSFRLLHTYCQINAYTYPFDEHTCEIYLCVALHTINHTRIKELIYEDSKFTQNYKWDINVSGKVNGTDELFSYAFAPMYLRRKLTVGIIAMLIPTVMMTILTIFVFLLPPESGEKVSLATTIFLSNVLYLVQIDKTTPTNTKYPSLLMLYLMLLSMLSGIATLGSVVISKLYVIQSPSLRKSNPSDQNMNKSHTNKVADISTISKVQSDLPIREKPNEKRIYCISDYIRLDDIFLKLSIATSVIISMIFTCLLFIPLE", "assay": "cryo-EM structure at […] Å", "format": "cell-based"}, "[2]": {"molecular_target": "T2, chemotactile receptor for terpenes 1 (CRT1) (Octopus bimaculoides, UniProt A0A0L8FVQ9)", "T2 sequence (A0A0L8FVQ9 21-399)": "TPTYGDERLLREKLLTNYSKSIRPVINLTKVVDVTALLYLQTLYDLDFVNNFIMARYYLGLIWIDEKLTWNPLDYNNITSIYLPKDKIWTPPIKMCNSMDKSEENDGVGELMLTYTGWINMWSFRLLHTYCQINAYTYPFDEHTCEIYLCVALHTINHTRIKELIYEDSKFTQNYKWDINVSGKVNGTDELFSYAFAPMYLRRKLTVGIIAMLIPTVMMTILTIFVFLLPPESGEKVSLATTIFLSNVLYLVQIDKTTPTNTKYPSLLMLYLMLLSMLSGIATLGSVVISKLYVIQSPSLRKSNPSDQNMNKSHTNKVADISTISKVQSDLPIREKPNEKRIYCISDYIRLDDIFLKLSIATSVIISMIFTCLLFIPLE", "assay": "patch clamp dose-response in HEK […] cells expressing CRT1", "format": "cell-based"}, "[3]": {"molecular_target": "T2, chemotactile receptor for terpenes 1 (CRT1)", "assay": "patch clamp dose-response in HEK […] cells expressing CRT1", "format": "cell-based", "remark": "listed apart in the source"}, "cryo-EM structure": {"molecular_target": "the molecule itself", "assay": "cryo-EM structure"}}, "note": "Like-named read-outs stand apart in the source and are kept apart here."}
{"molecule": "C[C@@H]1CC[C@@]2(OC1)O[C@H]1C[C@H]3[C@@H]4CC=C5C[C@@H](OCCC(CO[C@@H]6O[C@H](CO)[C@@H](O[C@H]7O[C@H](CO)[C@@H](O)[C@H](O)[C@H]7O)[C@H](O)[C@H]6O)CO[C@@H]6O[C@H](CO)[C@@H](O[C@H]7O[C@H](CO)[C@@H](O)[C@H](O)[C@H]7O)[C@H](O)[C@H]6O)CC[C@]5(C)[C@H]4CC[C@]3(C)[C@H]1[C@@H]2C", "note": "[GDN, glyco-diosgenin]", "values": [{"measurement": "EC50", "setting": "[1]", "result": 0.125, "unit": "µM"}]}
{"molecule": "C=C(C)[C@@H]1CCC2=CC(=O)C[C@@H](C)[C@]2(C)C1", "note": "[nootkatone]", "values": [{"measurement": "EC50", "setting": "[2]", "result": 16.1, "unit": "µM"}]}
{"molecule": "C[C@H]1CCCC(=O)CCC/C=C/c2cc(O)cc(O)c2C(=O)O1", "note": "[zearalenone]", "values": [{"measurement": "EC50", "setting": "[3]", "result": 4.8, "unit": "µM"}]}
{"molecule": "chemotactile receptor for terpenes 1 (CRT1) (receptor, Octopus bimaculoides, UniProt A0A0L8FVQ9 21-399, looked up, N-linked glycans) TPTYGDERLLREKLLTNYSKSIRPVINLTKVVDVTALLYLQTLYDLDFVNNFIMARYYLGLIWIDEKLTWNPLDYNNITSIYLPKDKIWTPPIKMCNSMDKSEENDGVGELMLTYTGWINMWSFRLLHTYCQINAYTYPFDEHTCEIYLCVALHTINHTRIKELIYEDSKFTQNYKWDINVSGKVNGTDELFSYAFAPMYLRRKLTVGIIAMLIPTVMMTILTIFVFLLPPESGEKVSLATTIFLSNVLYLVQIDKTTPTNTKYPSLLMLYLMLLSMLSGIATLGSVVISKLYVIQSPSLRKSNPSDQNMNKSHTNKVADISTISKVQSDLPIREKPNEKRIYCISDYIRLDDIFLKLSIATSVIISMIFTCLLFIPLE", "values": [{"measurement": "stoichiometry N", "setting": "cryo-EM structure", "result": 5}]}
